Common to all, as to format: cell-based
One experiment has as its system Escherichia coli. The experiment can be described thus: Agar plate disc-diffusion, antibacterial activity (inhibition zone). The conditions noted are these: nutrient agar, 37° C., 48 h, DMSO zone subtracted. How it is done:
(§1) The agar plate disc-diffusion method was applied. Sterilized filter papers (6 mm in diameter) were wetted with 10 μL of a solution of 4-chloro-N′-(2-(5-(4-chlorophenyl)-1,3,4-oxadiazol-2-ylthio)acetoxy)benzimidamide (3) to be tested, containing 10 mg/mL in DMSO, and the discs were allowed to air dry. The discs were then placed onto the surface of agar plates (nutrient agar for bacteria and Sabouraud's dextrose agar for fungi) seeded with the test organism. Each plate contained 15 mL of the agar medium, previously seeded with 0.2 mL of the broth culture of each organism pregrown for 18 hours. The plates were incubated at 37° C. for 48 h, and 72 h for fungi. The inhibition zones were measured in mm. Discs impregnated with DMSO were used as a control, and its inhibition zone was subtracted from the tested compound actual inhibition zone.
(§2) The results of the antimicrobial testing can be observed in Tables 1 and 2, below, using ciprofloxacin as a reference.

For the next experiment, the system named is Pseudomonas aeruginosa. Described as above. Conditions: nutrient agar, 37° C., 48 h, DMSO zone subtracted. How it is done:
as §1, §2

Another experiment concerns Staphylococcus aureus. Described as above. The conditions noted are these: nutrient agar, 37° C., 48 h, DMSO zone subtracted. How it is done:
as §1, §2

The next experiment concerns Bacillus Cereus. The experiment is described as above. The conditions noted are these: nutrient agar, 37° C., 48 h, DMSO zone subtracted. How it is done: as §1, §2
The test system of the next experiment is Aspergillus flavus. In words: Agar plate disc-diffusion, antifungal activity (inhibition zone). Conditions: Sabouraud's dextrose agar, 37° C., 72 h, DMSO zone subtracted. How it is done:
as §1, §2

The subject of experiment [1] is Chrysosporium keratinophilum. The experiment is described as above. Conditions: Sabouraud's dextrose agar, 37° C., 72 h, DMSO zone subtracted. How it is done: as §1, §2
Setting [2] is: A = concentration of comp. = 10,000 μL.
[3] abbreviates: B = concentration of comp. = 30.000 μL.
Where [4] appears, read: C = concentration of comp. = 50,000 μL.

Consider `N/C(=N\OC(=O)CSc1nnc(-c2ccc(Cl)cc2)o1)c1ccc(Cl)cc1` [Compound 3, 4-chloro-N′-(2-(5-(4-chlorophenyl)-1,3,4-oxadiazol-2-ylthio)acetoxy)benzimidamide], for which the “inhibition zone, Escherichia coli, A” value with Escherichia coli (setting [2]) was 27 mm. Also, in the experiment on Escherichia coli (setting [3]), the “inhibition zone, Escherichia coli, B” value is listed as 34 mm. Also, the “inhibition zone, Escherichia coli, C” value in the experiment on Escherichia coli (setting [4]) was determined as 41 mm. Also, the “inhibition zone, Pseudomonas aeruginosa, A” value in the experiment with Pseudomonas aeruginosa (setting [2]) was 21 mm. The “inhibition zone, Pseudomonas aeruginosa, B” value with Pseudomonas aeruginosa (setting [3]) was 24 mm. Moreover, the “inhibition zone, Pseudomonas aeruginosa, C” value in the experiment with Pseudomonas aeruginosa (setting [4]) was found to be 36 mm. For the same molecule, in the experiment on Staphylococcus aureus (setting [2]), the “inhibition zone, Staphylococcus aureus, A” value is reported as 19 mm. For the same molecule, the “inhibition zone, Staphylococcus aureus, B” value with Staphylococcus aureus (setting [3]) is 24 mm. The “inhibition zone, Staphylococcus aureus, C” value with Staphylococcus aureus (setting [4]) came to 37 mm. Besides, in the experiment with Bacillus Cereus (setting [2]), the “inhibition zone, Bacillus Cereus, A” value is 20 mm. The “inhibition zone, Bacillus Cereus, B” value in the experiment with Bacillus Cereus (setting [3]) was determined as 26 mm. Moreover, in the experiment on Bacillus Cereus (setting [4]), the “inhibition zone, Bacillus Cereus, C” value stood at 39 mm. The “inhibition zone, Aspergillus flavus, A” value in the experiment with Aspergillus flavus (setting [2]) was 24 mm. In the experiment with Aspergillus flavus (setting [3]), the “inhibition zone, Aspergillus flavus, B” value was 26 mm. Besides, the “inhibition zone, Aspergillus flavus, C” value with Aspergillus flavus (setting [4]) is given as 35 mm. Further, the “inhibition zone, Chrysosporium keratinophilum, A” value in experiment [1] (setting [2]) was determined as 25 mm. Further, the “inhibition zone, Chrysosporium keratinophilum, B” value in experiment [1] (setting [3]) came to 27 mm. Besides, in experiment [1] (setting [4]), the “inhibition zone, Chrysosporium keratinophilum, C” value was 40 mm.

The record behind these values is patent publication US12012388B1, “4-chloro-n'-(2-(5-(4-chlorophenyl)-1,3,4-oxadiazol-2-ylthio)acetoxy)benzimidamide as an antimicrobial compound” (KING FAISAL UNIVERSITY, priority 2023, dated 2024).
